From patent EP4610262A1, “MACROCYCLIC COMPOUND AS CDK9 INHIBITOR AND USE THEREOF” (Artivila Biopharma, priority 2022, dated 2024) come the findings set out here.

The target of one assay is CDK9 (Homo sapiens, UniProt P50750). Description: Inhibition of CDK9 kinase activity (caliper mobility shift assay). Type of assay: biochemical. To be noted: for IC50: 10 concentrations from 10 µM, three-fold dilutions. As to the method:
Compounds were tested at a concentration of 10 nM with detection in duplicate wells, or tested at 10 concentrations starting from 10 µM with three-fold serial dilutions, with detection in duplicate wells.
The inhibitory effect of the compounds on the activity of CDK9 protein kinase was detected by the caliper mobility shift assay method. 250 nL of the compound at 100-fold final concentration was transferred to a target 384-well-plate with a dispenser Echo 550. A kinase solution at 2.5-fold final concentration was prepared using 1× kinase buffer. 10 µL of the kinase solution at 2.5-fold final concentration was added to the compound well and positive control well respectively. 10 µL of 1× kinase buffer was added to the negative control well. The 384-well plate was centrifuged at 1000 rpm for 30 seconds and incubated at room temperature for 10 minutes. A mixed solution of ATP and kinase substrate at 5/3-fold final concentration was prepared with 1× kinase buffer, and to the 384-well plate was added with 15 µL per well of the mixed solution of ATP and substrate at 5/3-fold final concentration to start the reaction. The plate was centrifuged at 1000 rpm for 30 seconds, shaken to mix evenly, and incubated at room temperature for a corresponding time. 30 µL of detection stopping solution was added to terminate the kinase reaction. The 384-well plate was centrifuged at 1000 rpm for 30 seconds and shaken to mix evenly. The conversion rate was read with Caliper EZ Reader. The percent conversion inhibition rate = (% positive control conversion rate mean - % sample conversion rate / (% positive control conversion rate mean - % negative control conversion rate mean). Among them: negative control wells represent the conversion rate readings of kinase buffer background wells; positive control wells represent the conversion rate readings of wells without inhibition by compound. With the log value of concentration as the x-axis and the percentage inhibition rate as the y-axis, a dose-response curve was fitted using the log (inhibitor) vs. response -Variable slope of the analysis software GraphPad Prism 5 to obtain the IC50 value of each compound on enzyme activity. Calculation formula: y=Bottom + (Top-Bottom)/(1+10^((LogIC50-x) × hillslope)), x: logarithm of inhibitor concentration; y: % inhibition rate.

A further assay deals with MV-4-11. Description: CDK9 cell activity assay, cell growth inhibition (CellTiter-Glo, 72 hours). Type of assay: cell-based. Conditions: Homo sapiens, MV4-11. How it is done: (§1) In the CDK9 cell activity assay, the cell line MV-4-11 was cultured in IMDM culture medium containing 10% fetal bovine serum (containing 100 U/mL penicillin and 0.1 g/L streptomycin); the cell line HCC1187 was cultured in RPMI-1640 culture medium containing 10% fetal bovine serum (containing 100 U/mL penicillin and 0.1 g/L streptomycin); the cell line Mia Paca-2 was cultured in DMEM containing 10% fetal bovine serum and 2.5% horse serum (containing 100 U/mL penicillin and 0.1 g/L streptomycin); and the cell line A375 was cultured in RPMI-1640 culture medium containing 10% fetal bovine serum (containing 100 U/mL penicillin and 0.1 g/L streptomycin). All cells were cultured in an incubator with saturated humidity at 37°C with 5% CO2.
(§2) When MV-4-11 cells, HCC1187 cells, Mia Paca-2 cells, and A375 cells grew to 80%-90% confluence, they were digested with trypsin, resuspended, counted, and diluted to a certain cell density with complete medium. 100 µL of the cells was plated into each well of a 96-well plate, and the complete medium was used as a background control. The cells were cultured overnight in an incubator with saturated humidity at 37°C with 5% CO2. The compounds were diluted with DMSO to a final concentration of 200×. 3 µL of the stock solution of the above compounds in DMSO was added to 197 µL of complete medium, and 50 µL of the compound diluted in the medium was added to the cells of each well. The cells were cultured in an incubator with saturated humidity at 37°C with 5% CO2 for 72 hours. After 72 hours, the culture plates were placed at room temperature for equilibrium. 40 µL of CellTiter-Glo® reagent was added to each well. The plate was mixed evenly on a shaker for 2 minutes to lyse the cells then incubated at room temperature for 60 minutes to stabilize the chemiluminescent signal, and the chemiluminescence was read using a PE EnVision microplate reader. The inhibition rate on cell growth was calculated as % Inh = (DMSO well - compound treatment well) / (DMSO well - background well) x 100, and fitting was performed using GraphPad Prism 5 to obtain the IC50 values against cell growth.
In general terms: In ATP-based viability assays light output follows the ATP content of the culture.

The next assay relates to HCC1187. The assay is described as above. To be noted: Homo sapiens. Type of assay: cell-based. How it is done: as §1, §2

Molecules are shown by their SMILES.

Chain of CDK9 (P50750 whole entry): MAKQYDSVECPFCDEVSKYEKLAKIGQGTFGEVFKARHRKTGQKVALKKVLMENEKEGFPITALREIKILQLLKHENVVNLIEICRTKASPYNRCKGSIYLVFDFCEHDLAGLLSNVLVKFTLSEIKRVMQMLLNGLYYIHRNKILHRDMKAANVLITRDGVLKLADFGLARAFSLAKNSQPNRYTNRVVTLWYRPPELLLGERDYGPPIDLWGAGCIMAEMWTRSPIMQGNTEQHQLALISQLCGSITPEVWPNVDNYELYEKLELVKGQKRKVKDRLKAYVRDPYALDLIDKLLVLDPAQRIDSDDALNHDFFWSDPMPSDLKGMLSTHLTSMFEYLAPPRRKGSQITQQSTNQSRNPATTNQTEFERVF
Chain of CDK9 (O60563 whole entry partner): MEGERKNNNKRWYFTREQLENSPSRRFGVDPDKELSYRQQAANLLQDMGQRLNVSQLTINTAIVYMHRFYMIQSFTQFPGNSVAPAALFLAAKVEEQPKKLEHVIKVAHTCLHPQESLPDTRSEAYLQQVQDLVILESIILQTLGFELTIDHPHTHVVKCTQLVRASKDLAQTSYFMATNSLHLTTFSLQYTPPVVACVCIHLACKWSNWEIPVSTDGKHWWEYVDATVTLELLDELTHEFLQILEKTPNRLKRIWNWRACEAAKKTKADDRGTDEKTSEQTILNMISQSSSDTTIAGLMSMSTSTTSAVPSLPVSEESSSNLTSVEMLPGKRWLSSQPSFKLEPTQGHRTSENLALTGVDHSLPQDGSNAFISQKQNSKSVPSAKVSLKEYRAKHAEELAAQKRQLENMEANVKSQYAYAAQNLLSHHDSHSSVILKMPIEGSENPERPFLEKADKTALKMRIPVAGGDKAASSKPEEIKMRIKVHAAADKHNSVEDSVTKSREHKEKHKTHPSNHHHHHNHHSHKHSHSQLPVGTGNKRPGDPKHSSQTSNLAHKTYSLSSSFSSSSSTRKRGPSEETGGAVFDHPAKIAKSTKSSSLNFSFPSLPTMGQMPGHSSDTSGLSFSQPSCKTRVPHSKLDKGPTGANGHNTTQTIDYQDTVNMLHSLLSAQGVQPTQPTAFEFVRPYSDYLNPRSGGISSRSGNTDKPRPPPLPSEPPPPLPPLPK

The term IC50 denotes the concentration that gives 50% inhibition. Turning to `Clc1cnc2nc1-c1cnn(c1)CCCCCCn1cc(c(Cl)n1)N2` [Compound 33, (1^4Z,4^4E,7Z)-2^5,4^3-chloro-1^1H,4^1H-3-aza-2(4,2)-pyrimidina-1,4(4,1)-bipyrazolacyclodecaphane], the IC50 on CDK9 was in the range of 500 to 1000 nM.

`Clc1cnc2nc1-c1cnn(c1)CCCCCNc1cccc(c1)N2` [Compound 32, (Z)-2^5-chloro-1^1H-3,5-diaza-2(4,2)-pyrimidina-1(4,1)-pyrazola-4(1,3)-benzenacyclodecaphane]: at CDK9, the IC50 was less than 100 nM.

With `Cc1ccc2cc1-c1nc(ncc1Cl)Nc1cnn(c1)CCCCCN2` [Compound 28, (E)-2^5-chloro-1^6-methyl-4^1hydro-3,10-diaza-2(4,2)-diaza-2(4,2)-pyrimidina-4(4,1)-pyrazola-1(1, 3)-benzenacyclodecaphane], the IC50 in the assay with MV-4-11 was less than 250 nM; at CDK9, less than 100 nM. Consider `Cc1ccc2cc1-c1nc(ncc1Cl)Nc1cccc(c1)CNCCCCO2` [Compound 36, 2^5-chloro-1^6-methyl-11-oxy-3,6-diaza-2(4,2)-pyrimidina-1,4(1,3)-dibenzocycloundecaphane], for which the IC50 at CDK9 is less than 100 nM. For the molecule `Fc1cnc2nc1-c1cccc(c1)NCCCCNc1cccc(c1)N2` [Compound 38, 2^5-fluoro-3,5,10-triaza-2(4,2)-pyrimidina-1,4(1,3)-dibenzenacyclodecaphane], the IC50 in the assay on HCC1187 is 250 to 1000 nM; in the assay on MV-4-11 it was 250 to 1000 nM; on CDK9 it was less than 100 nM.

With `Clc1cnc2nc1N1CCC(C1)NCCCNCc1cccc(c1)N2` (stereo not shown) [Compound 43, 2^5-chloro-3,6,10-triaza-2(4,2)-pyrimidina-1(1,3)-pyrrolidina-4(1,3)-benzenacyclodecaphane], the IC50 on CDK9 was 500 to 1000 nM. For `Cc1ccc2cc1-c1nc(ncc1Cl)Nc1cccc(c1)NCCCCN2` [Compound 22, 2^5-chloro-1^6-methyl-3,5,10-triaza-2(4,2)-pyrimidina-1,4(1,3)-dibenzocyclodecane], the IC50 on CDK9 is less than 100 nM. Consider `Fc1cnc2nc1-c1cccc(c1)NC/C=C\CNc1cccc(c1)N2` [Compound 37, (Z)-2^5-fluoro-3,5,10-triaza-2(4,2)-pyrimidina-1,4(1,3)-dibenzenacyclooctyna-7-ene], for which the IC50 on CDK9 was less than 100 nM. As to `Clc1cnc2nc1-c1cccc(c1)OCCCCNCc1cccc(c1)N2` [Compound 34, 2^5-chloro-11-oxa-3,6-diaza-2(4,2)-pyrimidina-1,4(1,3)-dibenzenacycloundecaphane], on CDK9, the IC50 was less than 100 nM. On the same count and under the same terms, the result for `Clc1cnc2nc1N1CCC(C1)NCCCCNCc1cccc(c1)N2` (stereo not shown) [Compound 44, 2^5-chloro-3,6,11-triaza-2(4,2)-pyrimidina-1(1,3)-pyrrolidina-4(1,3)-benzenacycloalkaphane] reads 500 to 1000 nM; that for `Cc1nc2sc1-c1nc(ncc1F)Nc1cccc(c1)NC/C=C\CN2` [Compound 6, (Z)-2^5-fluoro-1^4-methyl-3,5,10-triaza-1(5,2)-thiazolin-2(4,2)-pyrimidina-4(1,3)-benzenacyclodec aphan-7-ene], 100 to 500 nM; that for `Cc1ccc2cc1-c1nc(ncc1F)Nc1cccc(c1)NCCCCN2` [Compound 30, 2^5-fluoro-1^6-methyl-3,5,10-triaza-2(4,2)-pyrimidina-1,4(1,3)-dibenzenacyclodecaphane], less than 100 nM. As to `Clc1cnc2nc1-c1cnn(c1)CC/C=C\CNc1cccc(c1)N2` [Compound 31, (1^4Z,7Z)-2^5-chloro-1^1H-3,5-diaza-2(4,2)-pyrimidina-1(4,1)-pyrazola-4(1,3)-benzenacyclodecaph an-7-ene], the IC50 in the assay with HCC1187 was 250 to 1000 nM; with MV-4-11, less than 250 nM; at CDK9, less than 100 nM. `Clc1cnc2nc1NCCCCCn1cc(cn1)N2` [Compound 47, (E)-1^5-chloro-3^1H-2,9-diaza-1(2,4)-pyrimidina-3(4,1)-pyrazolacyclononaphane]: the IC50 at CDK9 was 100 to 500 nM. In the case of `Clc1cnc2nc1N1CCC(C1)OCCCNCc1cccc(c1)N2` (stereo not shown) [Compound 45, 2^5-chloro-10-oxa-3,6-diaza-2(4,2)-pyrimidina-1(1,3)-pyrrolidina-4(1,3)-benzenacyclodecaphane], the IC50 on CDK9 was 100 to 500 nM. Regarding `Cc1ccc2cc1-c1nc(ncc1Cl)Nc1cccc(c1)CNCCCN2` [Compound 35, 2^5-chloro-1^6-methyl-3,6,10-triaza-2(4,2)-pyrimidina-1,4(1,3)-dibenenacyclodecaphane], the IC50 in the assay on HCC1187 is less than 250 nM; in the assay on MV-4-11, less than 250 nM; on CDK9, less than 100 nM. Regarding `COc1ccc2cc1-c1nc(ncc1F)Nc1cccc(c1)NC/C=C\CN2` [Compound 39, (Z)-2^5-fluoro-1^6-methoxy-3,5,10-triaza-2(4,2)-pyrimidina-1,4(1,3)-dibenzenacyclooctyna-7-ene], the IC50 in the assay with HCC1187 was 1000 to 5000 nM; in the assay with MV-4-11, 250 to 1000 nM; on CDK9, less than 100 nM. As to `CN1CCCCCNCc2cccc(c2)Nc2ncc(Cl)c1n2` [Compound 25, 1^5-chloro-11-methyl-2,5,11-triaza-1(2,4)-pyrimidina-3(1,3)-benzocycloundecaphane], the IC50 on CDK9 was less than 100 nM. Turning to `Cc1ccc2cc1-c1nc(ncc1Cl)Nc1cnn(c1)CCNCCN2` [Compound 46, (E)-2^5-chloro-1^6-methyl-4^1H-3,7,10-triaza-2(4,2)-pyrimidina-4(4,1)-pyrazola-1(1,3)-benzenacycl odecaphane], the 50% inhibitory concentration (IC50) was 250 to 1000 nM with HCC1187, 250 to 1000 nM in the assay on MV-4-11 and less than 100 nM on CDK9. On to `Cc1ccc2cc1-c1nc(ncc1F)Nc1cccc(c1)NC/C=C\CN2` [Compound 29, (Z)-2^5-fluoro-1^6-methyl-3,5,10-triaza-2(4,2)-pyrimidina-1,4(1,3)-dibenzenacyclodecaphan-7-ene], for which, on CDK9, the IC50 is less than 100 nM.

`CN1CCN(c2ccc3cc2COCCCCCNc2nc(ncc2Cl)N3)CC1` [Compound 21, 1^5-chloro-3^4-(4-methylpiperazin-1-yl)-5-oxa-2,11-diaza-1(2,4)-pyrimidina-3(1,3)-benzenacyclou ndecaphane]: on CDK9, the IC50 was 100 to 500 nM. On to `c1cc2cc(c1)Nc1nccc(n1)NCCCCCNC2` [Compound 24, 2,5,11-triaza-1(2,4)-pyrimidina-3(1,3)-benzocycloundecaphane], for which the 50% inhibitory concentration (IC50) at CDK9 is less than 100 nM.

`COc1ccc2cc1-c1nc(ncc1F)Nc1cccc(c1)NCCCCN2` [Compound 40, 2^5-fluoro-1^6-methoxy-3,5,10-triaza-2(4,2)-pyrimidina-1,4(1,3)-dibenzenacyclodecaphane]: the IC50 at CDK9 was less than 100 nM. For `Cc1ccc2cc1-c1nc(ncc1Cl)Nc1cnn(c1)CC/C=C\CN2` [Compound 27, (4^4E,7Z)-2^5-chloro-1^6-methyl-4^1hydro-3,10-diaza-2(4,2)-pyrimidina-4(4,1)-pyrazole-1(1,3)-benz enecyclodecane-7-ene], the IC50 on CDK9 is less than 100 nM.

The term inhibition denotes the share of the control response that was lost under treatment. As to `Cc1nc2sc1-c1nc(ncc1F)Nc1cccc(c1)NCCOCCN2` [Compound 5, 2^5-fluoro-1^4-methyl-8-oxa-3,5,11-triaza-1(5,2)-thiazol-2(4,2)-pyrimidina-4(1,3)-benzenacyclodec aphane], the IC50 at CDK9 is less than 100 nM. Besides, the inhibition at 0.01 µM on CDK9 (compound at 10 nM, read-out: Inhibition rate on CDK9 kinase activity) fell in the range of 25 to 49%.
